According to patent US20130317027A1, “COMPOUNDS AND THERAPEUTIC USES THEREOF” (Myrexis, Inc, priority 2010, published 2013):

Tested on: cell lines (cancer, normal and primary cells)
Assay: NA Rescue assay (cytotoxicity with nicotinic acid added)
Type: cell-based
Settings: fixed dose
Description: Cell lines were treated with a fixed dose of Exemplary Compound A and screened for NA rescue and Naprt1 expression by immunoblotting and quantitative RT-PCR (Table 7). […] The 176 cell lines included 5 normal (non-cancerous) cells and 3 primary cells (italicized in the table), all of which rescued. Naprt1 was quantified by western blotting and q-RT-PCR in 164 and 123 of the 176 cell lines, respectively. […] A statistically significant (p value <0.0001) correlation existed between NA rescue phenotype and Naprt1 protein or mRNA expression levels.
Additional cancer cell lines were treated with Exemplary Compounds A, C, D, E, F, G and H (identified below) (Table 8). The NA rescue phenotype of a particular cancer cell line was maintained for all Nampt inhibitors tested.

O=C(NCc1cccnc1)Nc1ccc(COc2ccccc2-c2ccccc2)cc1 [Exemplary Compound A] was tested, and the NA rescue (A549 cells, lung (NSCLC)) was “yes”, the NA rescue (ACHN cells, kidney) was “yes” and the NA rescue (AsPC-1 cells, pancreas) was “yes”. For the same compound, the NA rescue (BEAS-2B cells, lung (normal)) was “yes”, the NA rescue (BT-474 cells, breast) was “yes” and the NA rescue (BxPC-3 cells, pancreas) was “yes”. For the same compound, the NA rescue (CCRF-CEM cells, lymphocytic leukemia) was “yes”, the NA rescue (CFPAC-1 cells, pancreas) was “yes” and the NA rescue (CHLA-90 cells, brain, neuroblastoma) was “no”. For the same compound, the NA rescue (Calu-1 cells, lung (NSCLC)) was “yes”, the NA rescue (Calu-6 cells, lung (NSCLC)) was “yes” and the NA rescue (Capan-1 cells, pancreas) was “yes”. The NA rescue (DBTRG-05MG cells, brain, glioblastoma) was “yes”, the NA rescue (DEL cells, lymphoma) was “partial” and the NA rescue (DU145 cells, prostate) was “yes”. The NA rescue (DU4475 cells, breast) was “yes”, the NA rescue (Daoy cells, brain, medulloblastoma) was “yes” and the NA rescue (Daudi cells, lymphoma) was “no”. For the same compound, the NA rescue (EKVX cells, lung (NSCLC)) was “yes”, the NA rescue (H4 cells, brain, neuroglioma) was “partial” and the NA rescue (H9 cells, lymphoma) was “no”. For the same compound, the NA rescue (HCC78 cells, lung (NSCLC)) was “no”, the NA rescue (HOP18 cells, lung (NSCLC)) was “yes” and the NA rescue (HOP62 cells, lung (NSCLC)) was “yes”. For the same compound, the NA rescue (HOP92 cells, lung (NSCLC)) was “yes”, the NA rescue (HOS cells, osteosarcoma) was “no” and the NA rescue (HepG2 cells, hepatocellular carcinoma) was “no”. The NA rescue (Hs683 cells, brain, glioma) was “yes”, the NA rescue (Hs766T cells, pancreas) was “yes” and the NA rescue (Huh7 cells, hepatocellular carcinoma) was “yes”. The NA rescue (IMR-32 cells, brain, neuroblastoma) was “no”, the NA rescue (IMR-90 cells, lung (normal)) was “yes” and the NA rescue (JJN3 cells, myeloma (plasma cell leukemia)) was “yes”. For the same compound, the NA rescue (Jurkat cells, lymphocytic leukemia) was “yes”, the NA rescue (KARPAS-299 cells, lymphocytic leukemia) was “no” and the NA rescue (KELLY cells, brain, oligodendroglioma) was “no”. The NA rescue (KNS-42 cells, brain, glioma) was “no”, the NA rescue (L-82 cells, lymphoma) was “yes” and the NA rescue (LA-N-6 cells, brain, neuroblastoma) was “yes”. The NA rescue (LNCAP cells, prostate) was “yes”, the NA rescue (M059J cells, brain, malignant glioblastoma, glioma) was “no” and the NA rescue (MALME-3 cells, skin (normal)) was “yes”. For the same compound, the NA rescue (MG-63 cells, osteosarcoma) was “no”, the NA rescue (MM.1S cells, myeloma) was “yes” and the NA rescue (MOLP-8 cells, myeloma) was “partial”. The NA rescue (MOLT4 cells, lymphocytic leukemia) was “yes”, the NA rescue (MONO-MAC-6 cells, lymphocytic leukemia) was “partial” and the NA rescue (MRC-5 cells, lung (normal)) was “yes”. For the same compound, the NA rescue (NAMALWA cells, lymphoma) was “no”, the NA rescue (NCI-H23 cells, lung (NSCLC)) was “yes” and the NA rescue (NCI-H69 cells, lung (small cell)) was “no”. For the same compound, the NA rescue (NCI-H146 cells, lung (small cell)) was “yes”, the NA rescue (NCI-H209 cells, lung (small cell)) was “yes” and the NA rescue (NCI-H226 cells, lung (NSCLC)) was “yes”. For the same compound, the NA rescue (NCI-H322 cells, lung (NSCLC)) was “no”, the NA rescue (NCI-H345 cells, lung (small cell)) was “yes” and the NA rescue (NCI-H441 cells, lung (NSCLC)) was “yes”. For the same compound, the NA rescue (NCI-H596 cells, lung (NSCLC)) was “partial”, the NA rescue (NCI-H1299 cells, lung (NSCLC)) was “yes” and the NA rescue (NCI-H1437 cells, lung (NSCLC)) was “yes”. For the same compound, the NA rescue (NCI-H1568 cells, lung (NSCLC)) was “yes”, the NA rescue (NCI-H1792 cells, lung (NSCLC)) was “yes” and the NA rescue (NCI-H1944 cells, lung (NSCLC)) was “yes”. For the same compound, the NA rescue (NCI-H1993 cells, lung (NSCLC)) was “yes”, the NA rescue (OVCAR-3 cells, ovary) was “yes” and the NA rescue (PBMC, primary blood) was “yes”. For the same compound, the NA rescue (PFSK-1 cells, brain, malignant neuroectodermal tumor) was “partial”, the NA rescue (Panc-1 cells, pancreas) was “yes” and the NA rescue (RPMI-8226 cells, myeloma) was “partial”. For the same compound, the NA rescue (Ramos cells, lymphoma) was “yes”, the NA rescue (SAEC, primary lung) was “yes” and the NA rescue (SF-268 cells, brain, astrocytoma, anaplastic) was “no”. For the same compound, the NA rescue (SF-539 cells, brain, gliosarcoma) was “yes”, the NA rescue (SH-SY5Y cells, brain, neuroblastoma, bone marrow met.) was “no” and the NA rescue (SHP-77 cells, lung (small cell)) was “yes”. For the same compound, the NA rescue (SJSA1 cells, osteosarcoma) was “yes”, the NA rescue (SK-ES-1 cells, osteosarcoma) was “yes” and the NA rescue (SK-N-FI cells, brain, neuroblastoma, bone marrow met.) was “no”. For the same compound, the NA rescue (SK-N-MC cells, brain, neuroepithelioma, supra-orbital met.) was “no”, the NA rescue (SK-N-SH cells, brain, neuroblastoma, metastatic) was “no” and the NA rescue (SMS-KCNR cells, brain, neuroblastoma, ALK (R1275Q).) was “yes”. For the same compound, the NA rescue (SNB-19 cells, brain, glioblastoma) was “no”, the NA rescue (SNU182 cells, hepatocellular carcinoma) was “yes” and the NA rescue (SNU449 cells, hepatocellular carcinoma) was “yes”. The NA rescue (SR-786 cells, lymphoma) was “no”, the NA rescue (SU-DHL-1 cells, lymphoma) was “no” and the NA rescue (SU-DHL-10 cells, lymphoma) was “yes”. For the same compound, the NA rescue (SW1088 cells, brain, astrocytoma) was “yes”, the NA rescue (SW1783 cells, brain, astrocytoma) was “yes” and the NA rescue (Saos-2 cells, osteosarcoma) was “yes”. The NA rescue (T24 cells, bladder) was “yes”, the NA rescue (THP-1 cells, lymphocytic leukemia) was “yes” and the NA rescue (U251 cells, brain, glioblastoma) was “no”. The NA rescue (U-2 OS cells, osteosarcoma) was “no”, the NA rescue (U-937 cells, lymphoma) was “yes” and the NA rescue (UWB1.289 cells, ovary) was “yes”. For the same compound, the NA rescue (Wi-38 cells, lung (normal)) was “yes”, the “cell lines that completely rescued with NA” value (of 176 cell lines tested) was 113 and the “cell lines that did not rescue with NA” value (of 176 cell lines tested) was 47. For the same compound, the “cell lines that partially rescued with NA” value (of 176 cell lines tested) was 16, the NA rescue (keratinocytes, primary skin) was “yes” and the NA rescue (no. 10 cells, brain, glioma, anaplastic) was “no”. The NA rescue (no. 11 cells, brain, glioma, anaplastic) was “partial”.
